Measurements: ChEMBL document CHEMBL1142186, “Multistep resistance selection and postantibiotic-effect studies of the antipneumococcal activity of LBM415 compared to other agents” (2007)

Tests used:
Type in all cases: functional
Streptococcus pneumoniae [1] = assay: Antibacterial activity against levofloxacin resistance selected Streptococcus pneumoniae 19 with GyrA S81Y and ParC D83Y mutation after 10 antibiotic-free subcultures by macrodilution method
Streptococcus pneumoniae [2] = assay: Antibacterial activity against moxifloxacin resistance selected Streptococcus pneumoniae 3665 with GyrA S81Y mutation after 10 antibiotic-free subcultures by macrodilution method
Streptococcus pneumoniae [3] = assay: Antibacterial activity against clarithromycin resistance selected Streptococcus pneumoniae 3665 after 10 antibiotic-free subcultures by macrodilution method
Streptococcus pneumoniae [4] = assay: Antibacterial activity against gatifloxacin resistance selected Streptococcus pneumoniae 3009 after 10 antibiotic-free subcultures by macrodilution method
Streptococcus pneumoniae [5] = assay: Antibacterial activity against Streptococcus pneumoniae assessed as period of suppression of bacterial growth
Streptococcus pneumoniae [6] = assay: Antibacterial activity against […] resistance selected Streptococcus pneumoniae 3243 with PDF G69C, Q172H mutation after 20 passages by macrodilution method
Streptococcus pneumoniae [7] = assay: Antibacterial activity against […] resistance selected Streptococcus pneumoniae 3676 with PDF R135C mutation after 20 passages by macrodilution method
Streptococcus pneumoniae [8] = assay: Antibacterial activity against […] resistance selected Streptococcus pneumoniae 3413 after 10 antibiotic-free subcultures by macrodilution method
Streptococcus pneumoniae [9] = assay: Antibacterial activity against […] resistance selected Streptococcus pneumoniae 19 with after 10 antibiotic-free subcultures by macrodilution method
Streptococcus pneumoniae [10] = assay: Antibacterial activity against Streptococcus pneumoniae 37 by macrodilution method
Streptococcus pneumoniae [11] = assay: Antibacterial activity against […] resistance selected Streptococcus pneumoniae 3665 with after 27 passages by macrodilution method
Streptococcus pneumoniae [12] = assay: Antibacterial activity against clarithromycin resistance selected Streptococcus pneumoniae 3676 after 10 antibiotic-free subcultures by macrodilution method
Streptococcus pneumoniae [13] = assay: Antibacterial activity against moxifloxacin resistance selected Streptococcus pneumoniae 3243 after 10 antibiotic-free subcultures by macrodilution method
Streptococcus pneumoniae [14] = assay: Antibacterial activity against Streptococcus pneumoniae 24 by macrodilution method
Streptococcus pneumoniae [15] = assay: Antibacterial activity against […] resistance selected Streptococcus pneumoniae 24 with PDF G139F mutation after 27 passages by macrodilution method
Streptococcus pneumoniae [16] = assay: Antibacterial activity against […] resistance selected Streptococcus pneumoniae 3009 with PDF G69V mutation after 10 antibiotic-free subcultures by macrodilution method
Streptococcus pneumoniae [17] = assay: Antibacterial activity against Streptococcus pneumoniae 3009 by macrodilution method
Streptococcus pneumoniae [18] = assay: Antibacterial activity against Streptococcus pneumoniae 1077 by macrodilution method
Streptococcus pneumoniae [19] = assay: Antibacterial activity against Streptococcus pneumoniae 1076 by macrodilution method
Streptococcus pneumoniae [20] = assay: Antibacterial activity against […] resistance selected Streptococcus pneumoniae 37 with PDF G69R, P76R mutation after 10 antibiotic-free subcultures by macrodilution method
Streptococcus pneumoniae [21] = assay: Antibacterial activity against gatifloxacin resistance selected Streptococcus pneumoniae 37 with GyrA S81Y, GyrB E474K and ParC S79Y mutation after 10 antibiotic-free subcultures by macrodilution method
Streptococcus pneumoniae [22] = assay: Antibacterial activity against […] resistance selected Streptococcus pneumoniae 2527 after 10 antibiotic-free subcultures by macrodilution method
Streptococcus pneumoniae [23] = assay: Antibacterial activity against […] resistance selected Streptococcus pneumoniae 1076 with PDF D176N mutation after 10 antibiotic-free subcultures by macrodilution method
Streptococcus pneumoniae [24] = assay: Antibacterial activity against […] resistance selected Streptococcus pneumoniae 3009 with PDF G69V mutation after 14 passages by macrodilution method
Streptococcus pneumoniae [25] = assay: Antibacterial activity against […] resistance selected Streptococcus pneumoniae 37 with PDF G69R, P76R mutation after 50 passages by macrodilution method
Streptococcus pneumoniae [26] = assay: Antibacterial activity against azithromycin resistance selected Streptococcus pneumoniae 1077 with 23S rRNA A2058G mutation after 10 antibiotic-free subcultures by macrodilution method
Streptococcus pneumoniae [27] = assay: Antibacterial activity against Streptococcus pneumoniae 19 by macrodilution method
Streptococcus pneumoniae [28] = assay: Antibacterial activity against […] resistance selected Streptococcus pneumoniae 2527 after 27 passages by macrodilution method
Streptococcus pneumoniae [29] = assay: Antibacterial activity against gatifloxacin resistance selected Streptococcus pneumoniae 1076 with ParC S79Y mutation after 10 antibiotic-free subcultures by macrodilution method
Streptococcus pneumoniae [30] = assay: Antibacterial activity against azithromycin resistance selected Streptococcus pneumoniae 3243 with L22 insertion 93SFRPRA94 mutation after 10 antibiotic-free subcultures by macrodilution method
Streptococcus pneumoniae [31] = assay: Antibacterial activity against […] resistance selected Streptococcus pneumoniae 24 with PDF G139F mutation after 10 antibiotic-free subcultures by macrodilution method
Streptococcus pneumoniae [32] = assay: Antibacterial activity against moxifloxacin resistance selected Streptococcus pneumoniae 24 with GyrA S81Y, GyrB P413S and ParC S79F mutation after 10 antibiotic-free subcultures by macrodilution method
Streptococcus pneumoniae [33] = assay: Antibacterial activity against clarithromycin resistance selected Streptococcus pneumoniae 3009 after 10 antibiotic-free subcultures by macrodilution method
Streptococcus pneumoniae [34] = assay: Antibacterial activity against Streptococcus pneumoniae 3665 by macrodilution method
Streptococcus pneumoniae [35] = assay: Antibacterial activity against […] resistance selected Streptococcus pneumoniae 1076 with PDF D176N mutation after 39 passages by macrodilution method
Streptococcus pneumoniae [36] = assay: Antibacterial activity against […] resistance selected Streptococcus pneumoniae 1077 with PDF D176N mutation after 10 antibiotic-free subcultures by macrodilution method
Streptococcus pneumoniae [37] = assay: Antibacterial activity against clarithromycin resistance selected Streptococcus pneumoniae 3243 with 23S rRNA A2059T mutation after 10 antibiotic-free subcultures by macrodilution method
Streptococcus pneumoniae [38] = assay: Antibacterial activity against moxifloxacin resistance selected Streptococcus pneumoniae 19 with GyrA S81F mutation after 10 antibiotic-free subcultures by macrodilution method
Streptococcus pneumoniae [39] = assay: Antibacterial activity against Streptococcus pneumoniae 3243 by macrodilution method
Streptococcus pneumoniae [40] = assay: Antibacterial activity against […] resistance selected Streptococcus pneumoniae 3665 with after 10 antibiotic-free subcultures by macrodilution method
Streptococcus pneumoniae [41] = assay: Antibacterial activity against Streptococcus pneumoniae 3676 by macrodilution method
Streptococcus pneumoniae [42] = assay: Antibacterial activity against […] resistance selected Streptococcus pneumoniae 3413 after 14 passages by macrodilution method
Streptococcus pneumoniae [43] = assay: Antibacterial activity against moxifloxacin resistance selected Streptococcus pneumoniae 3676 with GyrA E85G, GyrB S478I and ParC S79Y mutation after 10 antibiotic-free subcultures by macrodilution method
Streptococcus pneumoniae [44] = assay: Antibacterial activity against Streptococcus pneumoniae 2527 by macrodilution method
Streptococcus pneumoniae [45] = assay: Antibacterial activity against moxifloxacin resistance selected Streptococcus pneumoniae 1076 with ParC S79Y mutation after 10 antibiotic-free subcultures by macrodilution method
Streptococcus pneumoniae [46] = assay: Antibacterial activity against Streptococcus pneumoniae 3413 by macrodilution method
Streptococcus pneumoniae [47] = assay: Antibacterial activity against […] resistance selected Streptococcus pneumoniae 1077 with PDF D176N mutation after 24 passages by macrodilution method
Streptococcus pneumoniae [48] = assay: Antibacterial activity against levofloxacin resistance selected Streptococcus pneumoniae 3009 with GyrA S81Y and ParC S79Y mutation after 10 antibiotic-free subcultures by macrodilution method
Streptococcus pneumoniae [49] = assay: Antibacterial activity against […] resistance selected Streptococcus pneumoniae 19 with after 14 passages by macrodilution method
Streptococcus pneumoniae [50] = assay: Antibacterial activity against […] resistance selected Streptococcus pneumoniae 3243 with PDF G69C, Q172H mutation after 10 antibiotic-free subcultures by macrodilution method
Streptococcus pneumoniae [51] = assay: Antibacterial activity against azithromycin resistance selected Streptococcus pneumoniae 2527 after 10 antibiotic-free subcultures by macrodilution method
Streptococcus pneumoniae [52] = assay: Antibacterial activity against moxifloxacin resistance selected Streptococcus pneumoniae 3009 with GyrA S81F and ParC D83N mutation after 10 antibiotic-free subcultures by macrodilution method
Streptococcus pneumoniae [53] = assay: Antibacterial activity against […] resistance selected Streptococcus pneumoniae 3676 with PDF R135C mutation after 10 antibiotic-free subcultures by macrodilution method

CCCC[C@H](CN(O)C=O)C(=O)N1CCC[C@H]1C(=O)Nc1ccc(F)c[n+]1[O-]
0.25 µg/mL: MIC (Streptococcus pneumoniae [3]) | MIC (Streptococcus pneumoniae [19]) | MIC (Streptococcus pneumoniae [26]) | MIC (Streptococcus pneumoniae [27]) | MIC (Streptococcus pneumoniae [29]) | MIC (Streptococcus pneumoniae [34]) | MIC (Streptococcus pneumoniae [44]) | MIC (Streptococcus pneumoniae [46])
1 h: Post Antibiotic Effe (Streptococcus pneumoniae [5])
2 µg/mL: MIC (Streptococcus pneumoniae [4]) | MIC (Streptococcus pneumoniae [7]) | MIC (Streptococcus pneumoniae [9]) | MIC (Streptococcus pneumoniae [20]) | MIC (Streptococcus pneumoniae [21]) | MIC (Streptococcus pneumoniae [23]) | MIC (Streptococcus pneumoniae [31]) | MIC (Streptococcus pneumoniae [42]) | MIC (Streptococcus pneumoniae [53])
> 16 µg/mL: MIC (Streptococcus pneumoniae [16]) | MIC (Streptococcus pneumoniae [24])
0.03 µg/mL: MIC (Streptococcus pneumoniae [13])
0.125 µg/mL: MIC (Streptococcus pneumoniae [12]) | MIC (Streptococcus pneumoniae [32]) | MIC (Streptococcus pneumoniae [41]) | MIC (Streptococcus pneumoniae [43]) | MIC (Streptococcus pneumoniae [45])
0.5 µg/mL: MIC (Streptococcus pneumoniae [2]) | MIC (Streptococcus pneumoniae [14]) | MIC (Streptococcus pneumoniae [18]) | MIC (Streptococcus pneumoniae [22]) | MIC (Streptococcus pneumoniae [30]) | MIC (Streptococcus pneumoniae [37]) | MIC (Streptococcus pneumoniae [38]) | MIC (Streptococcus pneumoniae [39]) | MIC (Streptococcus pneumoniae [48]) | MIC (Streptococcus pneumoniae [51]) | MIC (Streptococcus pneumoniae [52])
8 µg/mL: MIC (Streptococcus pneumoniae [35]) | MIC (Streptococcus pneumoniae [47])
16 µg/mL: MIC (Streptococcus pneumoniae [25])
4 µg/mL: MIC (Streptococcus pneumoniae [6]) | MIC (Streptococcus pneumoniae [11]) | MIC (Streptococcus pneumoniae [15]) | MIC (Streptococcus pneumoniae [28]) | MIC (Streptococcus pneumoniae [36]) | MIC (Streptococcus pneumoniae [49])
1 µg/mL: MIC (Streptococcus pneumoniae [1]) | MIC (Streptococcus pneumoniae [8]) | MIC (Streptococcus pneumoniae [10]) | MIC (Streptococcus pneumoniae [17]) | MIC (Streptococcus pneumoniae [33]) | MIC (Streptococcus pneumoniae [40]) | MIC (Streptococcus pneumoniae [50])

C=CC1=C(C(=O)O)N2C(=O)[C@@H](NC(=O)/C(=N\O)c3csc(N)n3)[C@H]2SC1
16 µg/mL: MIC (Streptococcus pneumoniae [51])
2 µg/mL: MIC (Streptococcus pneumoniae [32]) | MIC (Streptococcus pneumoniae [38])
4 µg/mL: MIC (Streptococcus pneumoniae [1]) | MIC (Streptococcus pneumoniae [21])
0.25 µg/mL: MIC (Streptococcus pneumoniae [3]) | MIC (Streptococcus pneumoniae [37])
0.125 µg/mL: MIC (Streptococcus pneumoniae [2]) | MIC (Streptococcus pneumoniae [4]) | MIC (Streptococcus pneumoniae [29]) | MIC (Streptococcus pneumoniae [30]) | MIC (Streptococcus pneumoniae [33]) | MIC (Streptococcus pneumoniae [43])
0.06 µg/mL: MIC (Streptococcus pneumoniae [12]) | MIC (Streptococcus pneumoniae [13]) | MIC (Streptococcus pneumoniae [26]) | MIC (Streptococcus pneumoniae [45]) | MIC (Streptococcus pneumoniae [48]) | MIC (Streptococcus pneumoniae [52])
1.6 h: Post Antibiotic Effe (Streptococcus pneumoniae [5])

CO/N=C(\C(=O)N[C@@H]1C(=O)N2C(C(=O)O)=C(CSc3nc(=O)c(O)nn3C)CS[C@H]12)c1csc(N)n1 [CEFTRIAXONE]
2 µg/mL: MIC (Streptococcus pneumoniae [1]) | MIC (Streptococcus pneumoniae [21]) | MIC (Streptococcus pneumoniae [38]) | MIC (Streptococcus pneumoniae [51])
0.03 µg/mL: MIC (Streptococcus pneumoniae [3]) | MIC (Streptococcus pneumoniae [12]) | MIC (Streptococcus pneumoniae [26]) | MIC (Streptococcus pneumoniae [43]) | MIC (Streptococcus pneumoniae [52])
1 µg/mL: MIC (Streptococcus pneumoniae [32])
0.125 µg/mL: MIC (Streptococcus pneumoniae [30]) | MIC (Streptococcus pneumoniae [37])
≤ 0.008 µg/mL: MIC (Streptococcus pneumoniae [13])
0.016 µg/mL: MIC (Streptococcus pneumoniae [4]) | MIC (Streptococcus pneumoniae [29]) | MIC (Streptococcus pneumoniae [33]) | MIC (Streptococcus pneumoniae [45]) | MIC (Streptococcus pneumoniae [48])
1.3 h: Post Antibiotic Effe (Streptococcus pneumoniae [5])
0.06 µg/mL: MIC (Streptococcus pneumoniae [2])
